{"source": "patent US20100184638A1", "about": "“Galanin Receptors and Brain Injury” (NeuroTargets, Ltd., priority 2004, published 2010)", "key": {"[1]": {"tested_on": "GALR1 and GALR2", "settings": "cited from earlier work"}, "[2]": {"tested_on": "organotypic hippocampal cultures", "experiment": "Staurosporine-induced cell death in organotypic hippocampal cultures (propidium iodide)", "type": "cell-based, mouse", "settings": "for percentage cell death: n=4", "procedure": "Organotypic cultures were prepared as previously described (Elliott-Hunt et al. (2002) J. Neurochem. 80 416-425; Stoppini et al. (1991) J. Neurosci. Methods 37 173-182). Briefly, the hippocampi from 5-6 day old pups were rapidly removed under a dissection microscope and sectioned transversely at 400 μm using a McIlwain tissue chopper (Mickle Laboratory Engineering Co. Ltd., Gomshall, UK). The slices were cultured in 95% air and 5% CO2 at 37° C. on a microporous transmembrane biopore membrane (Millipore, Poole, UK), in a 6-well plate, in 50% minimal essential medium with Earle's Salts (Gibco BRL, Paisley, UK) without L-glutamine, […] Hanks Balanced Salt Solution (Gibco BRL), 25% Horse Serum (heat inactivated; Harlan Serum Labs, Loughborough, UK), 5 mg/ml glucose (Sigma Chemical Co., Poole, UK) and […] glutamine (Sigma).\nFourteen day organotypic hippocampal cultures were placed in 0.1% BSA with serum free media for 16 hours before incubation with varying concentrations of glutamic acid for 3 hours or staurosporine for 9 hours. Staurosporine and glutamate are both known to cause excitotoxic damage to such cell cultures (Prehn et al. (1997) J. Neurochem. 68 1679-1685; Ohmori et al. (1996) Brain Res. 743 109-115). Cultures were washed with serum-free medium and incubated for a further 24 hours before imaging. Regional patterns of neuronal injury in the organotypic cultures were observed by performing experiments in the presence of propidium iodide. After membrane injury, the dye enters cells, binds to nucleic acids and accumulates, rendering the cell brightly fluorescent (Vornov et al. (1994) Stroke 25 457-465). […] Neuronal damage in the area encompassing the CA1 region was assessed using the density slice function in NIH Image software (Scion Image, MD, USA) to establish signal above background. The area of the subfields expressing the exclusion dye propidium iodide was measured, and expressed as a percentage of the total area of the subfields as assessed in the bright field image. Furthermore, for consistency in setting the parameters accurately when using the density slice function, the threshold was set against a positive control set of cultures exposed to 10 mM glutamate.\n(SEQ ID NO: 1) (AstraZeneca, Montreal, Quebec, Canada), amyloid-β (1-42) (Aβ (1-42)) and the reverse Aβ (42-1) peptide (American Peptide Company, Sunnyvale, Calif. 93906). Before use in the experiments below, the Aβ (1-42) was induced to form fibrils by pre-incubation in culture medium. Specifically, 0.45 mg of Aβ peptide was dissolved in 20 μl of dimethyl sulfoxide (DMSO-Sigma) and diluted to a 100-μM stock solution in medium, which was then incubated with gentle shaking at room temperature for 24 hours.\nTo further dissect the neuroprotective role played by galanin in a more tractable in vitro system, both primary dispersed and organotypic hippocampal cultures (Elliott-Hunt, 2002) were used. These two techniques are complimentary since the dispersed hippocampal cultures ensure that observed effects are neuron-specific, whilst the organotypic cultures preserve the synaptic and anatomical organisation of the neuronal circuitry (Elliott-Hunt, 2002) as well as retaining many of the functional characteristics found in vivo (Adamschik et al. (2000) Brain Res. Prot. 5 153-158). The effects of staurosporine and glutamate on neuronal cell death in hippocampal cultures (Prehn, 1997; Ohmori, 1996) were studied. Cell death was visualised by propidium iodide staining. Results are expressed as a percentage of the area expressing fluorescence as compared with the untreated “control” cultures."}, "[3]": {"tested_on": "organotypic hippocampal cultures", "experiment": "Glutamate-induced cell death in organotypic hippocampal cultures (propidium iodide)", "type": "cell-based, mouse", "settings": "4 mM glutamate, 9 hour exposure, n=4", "procedure": "Organotypic cultures were prepared as previously described (Elliott-Hunt et al. (2002) J. Neurochem. 80 416-425; Stoppini et al. (1991) J. Neurosci. Methods 37 173-182). Briefly, the hippocampi from 5-6 day old pups were rapidly removed under a dissection microscope and sectioned transversely at 400 μm using a McIlwain tissue chopper (Mickle Laboratory Engineering Co. Ltd., Gomshall, UK). […]\nStaurosporine and glutamate are both known to cause excitotoxic damage to such cell cultures (Prehn et al. (1997) J. Neurochem. 68 1679-1685; Ohmori et al. (1996) Brain Res. 743 109-115). […] Neuronal damage in the area encompassing the CA1 region was assessed using the density slice function in NIH Image software (Scion Image, MD, USA) to establish signal above background. The area of the subfields expressing the exclusion dye propidium iodide was measured, and expressed as a percentage of the total area of the subfields as assessed in the bright field image. […]\nTo further dissect the neuroprotective role played by galanin in a more tractable in vitro system, both primary dispersed and organotypic hippocampal cultures (Elliott-Hunt, 2002) were used. […] Results are expressed as a percentage of the area expressing fluorescence as compared with the untreated “control” cultures."}, "[4]": {"tested_on": "GALR2", "settings": "cited from earlier work"}}, "note": "Non-standard residues stand in square brackets, D forms with d. Residues, ends and D or L forms follow the SMILES beside them. *: point of attachment. Fmoc = O=C(OCC1c2ccccc2-c2ccccc21)*; Cha = N[C@@H](CC1CCCCC1)C(=O)O; AMC = Cc1cc(=O)oc2cc(N*)ccc12", "data": [{"compound": "Cc1cc(=O)oc2cc(NC(=O)[C@H](CCCCN)NC(=O)[C@H](CC3CCCCC3)NC(=O)OCC3c4ccccc4-c4ccccc43)ccc12", "note": "[Galnon] (Fmoc-[Cha]-Lys-{AMC})", "values": [{"measurement": "activation of other GPCR receptors including the neurotensin receptor", "setting": "[1]", "value": "also activates a number of other GPCR receptors"}, {"measurement": "agonistic activity at GALR1 and GALR2", "setting": "[1]", "value": "equally activates and has agonistic activity to both GALR1 and GALR2"}]}, {"compound": "CN[C@@H]1C[C@H]2O[C@@](C)([C@@H]1OC)n1c3ccccc3c3c4c(c5c6ccccc6n2c5c31)C(=O)NC4", "note": "[Staurosporine, staurosporine]", "values": [{"measurement": "percentage cell death", "setting": "[2]; 100 nM staurosporine, galanin knockout organotypic cultures", "value": "65±10", "unit": "%"}, {"measurement": "percentage cell death", "setting": "[2]; 100 nM staurosporine, wild-type organotypic cultures", "value": "40±26", "unit": "%"}, {"measurement": "percentage cell death", "setting": "[2]; 1 μM staurosporine, galanin knockout organotypic cultures", "value": "68±0.5", "unit": "%"}, {"measurement": "percentage cell death", "setting": "[2]; 1 μM staurosporine, wild-type organotypic cultures", "value": "38±8", "unit": "%"}]}, {"compound": "N[C@@H](CCC(=O)O)C(=O)O", "note": "[glutamate, L-glutamic acid]", "values": [{"measurement": "percentage cell death", "setting": "[3]; galanin knockout organotypic cultures", "value": "85±8.6", "unit": "%"}, {"measurement": "percentage cell death", "setting": "[3]; wild-type organotypic cultures", "value": "61±9.3", "unit": "%"}]}, {"compound": "WTLNSAGYLL [AR-M1896]", "values": [{"measurement": "cell death", "setting": "[2]; 100 nM AR-M1896 co-administered with 100 nM staurosporine, wild-type organotypic cultures, p<0.05", "value": "significantly reduced the amount of cell death"}, {"measurement": "reduction of staurosporine-induced cell death", "setting": "[2]; galanin knockout organotypic cultures versus wild-type cultures (data not shown)", "value": "as effective"}, {"measurement": "effect in the absence of staurosporine", "setting": "[2]; organotypic or primary cultures, no staurosporine", "value": "No significant effects"}, {"measurement": "binding specificity for GALR2 compared to GALR1", "setting": "[4]", "value": 500, "unit": "fold"}]}]}
